Data from patent US12091426B2, “Bifunctional degraders of hematopoietic progenitor kinase and therapeutic uses thereof” (Nurix Therapeutics, Inc., priority 2021, dated 2024).

Target: T1, HPK1 (Homo sapiens, UniProt Q92918)
T1 construct: A HiBiT tag was introduced by CRISPR on the N terminus of HPK1 in Jurkat cells; host or cells: Jurkat cells (ATCC TIB-152), monoclonal line with CRISPR knock-in of HiBiT at the endogenous HPK1 locus
Assay: HPK1 Cellular HiBit Degradation Assay
Assay type: cell-based
Conditions: HiBiT HPK1 Jurkat cells, 24 hrs; for DC50: concentration at which 50% of HPK1 was remaining, read-out: DC50 Category; for Dmax: Jurkat, maximum degradation vs DMSO vehicle control, read-out: Dmax Category
Procedure, shortened: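 Jurkat cells with CRISPR N-terminal HiBiT-tagged endogenous HPK1 treated 24 h at 37 °C with 11-point, 3.16-fold dilutions (10 uM to 0.1 nM final). HiBiT lytic luminescence gives % HPK1 remaining versus DMSO, with parental cells as background. Four-parameter fit yields DC50; Dmax = 100 minus lowest % remaining.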

T1 sequence (Q92918 whole entry): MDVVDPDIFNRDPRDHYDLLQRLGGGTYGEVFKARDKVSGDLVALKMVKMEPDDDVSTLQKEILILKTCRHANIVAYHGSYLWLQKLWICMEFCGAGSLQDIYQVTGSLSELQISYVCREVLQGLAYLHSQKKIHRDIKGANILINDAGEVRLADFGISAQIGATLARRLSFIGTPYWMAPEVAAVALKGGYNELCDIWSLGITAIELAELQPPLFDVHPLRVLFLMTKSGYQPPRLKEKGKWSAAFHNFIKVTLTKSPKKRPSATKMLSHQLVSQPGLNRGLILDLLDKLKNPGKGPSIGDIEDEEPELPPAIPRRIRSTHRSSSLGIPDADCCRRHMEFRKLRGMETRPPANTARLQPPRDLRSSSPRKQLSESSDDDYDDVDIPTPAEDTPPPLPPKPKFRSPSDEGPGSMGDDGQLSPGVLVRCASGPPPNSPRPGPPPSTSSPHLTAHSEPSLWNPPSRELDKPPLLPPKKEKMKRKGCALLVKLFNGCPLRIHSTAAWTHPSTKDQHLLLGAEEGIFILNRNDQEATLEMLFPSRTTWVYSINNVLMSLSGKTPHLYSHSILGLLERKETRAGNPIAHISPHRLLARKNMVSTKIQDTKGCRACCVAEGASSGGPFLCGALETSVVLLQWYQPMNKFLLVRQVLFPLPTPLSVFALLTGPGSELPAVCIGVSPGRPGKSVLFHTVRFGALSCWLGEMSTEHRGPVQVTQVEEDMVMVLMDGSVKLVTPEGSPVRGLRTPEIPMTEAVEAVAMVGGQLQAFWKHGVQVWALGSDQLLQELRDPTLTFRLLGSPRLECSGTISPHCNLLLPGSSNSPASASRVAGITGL

Row | SMILES | DC50 [nM] | Dmax [%]
1 | CC(C)n1cnc2cc(-c3ccc4c(c3)N([C@H]3C[C@@H](N5CCC(F)CC5)C3)C(=O)C43CCN(C(=O)C4(C)CCN(C(=O)C5CCN(c6ccc(C7CCC(=O)NC7=O)cn6)CC5)CC4)CC3)nc(NC3CC3)c21 (mixture of isomers) [Example 208, (3RS)-3-(6-{4-[4-({6-[4-(cyclopropylamino)-3-(propan-2-yl)-3H-imidazo[4,5-c]pyridin-6-yl]-2-oxo-1-[(1S,3S)-3-(4-fluoropiperidin-1-yl)cyclobutyl]-1,2-dihydrospiro[indole-3,4′-piperidin]-1′-yl}carbonyl)-4-methylpiperidine-1-carbonyl]piperidin-1-yl}pyridin-3-yl)piperidine-2,6-dione] | 100 to 500 | 50 to 70
2 | CC(C)n1cnc2cc(-c3ccc4c(c3)N([C@H]3C[C@@H](N5CCCCC5)C3)C(=O)C43CCN(C(=O)C4CCN(C(=O)C5CCN(c6ccc(C7CCC(=O)NC7=O)cc6)CC5)CC4)CC3)nc(Nc3ccccc3F)c21 (mixture of isomers) [Example 67, (3RS)-3-[4-(4-{4-[(6-{4-[(2-fluorophenyl)amino]-3-(propan-2-yl)-3H-imidazo[4,5-c]pyridin-6-yl}-2-oxo-1-[(1S,3S)-3-(piperidin-1-yl)cyclobutyl]-1,2-dihydrospiro[indole-3,4′-piperidin]-1′-yl)carbonyl]piperidine-1-carbonyl}piperidin-1-yl)phenyl]piperidine-2,6-dione] | < 100 | 70 to 85
3 | CC(C)n1cnc2cc(-c3ccc4c(c3)N([C@H]3C[C@@H](N5CCCCC5)C3)C(=O)C43CCN(C(=O)C4CCN(C(=O)[C@H]5CC[C@H](N(C)c6ccc(C7CCC(=O)NC7=O)cn6)CC5)CC4)CC3)nc(Nc3ccncc3F)c21 (mixture of isomers) [Example 132, (3RS)-3-(6-{methyl[(1R,4R)-4-{4-[(6-{4-[(3-Fluoropyridin-4-yl)amino]-3-(propan-2-yl)-3H-imidazo[4,5-c]pyridin-6-yl}-2-oxo-1-[(1S,3S)-3-(piperidin-1-yl)cyclobutyl]-1,2-dihydrospiro[indole-3,4′-piperidin]-1′-yl)carbonyl]piperidine-1-carbonyl}cyclohexyl]amino}pyridin-3-yl)piperidine-2,6-dione] | < 100 | 50 to 70
4 | CC(C)n1cnc2cc(-c3ccc4c(c3)N([C@H]3C[C@@H](N5CCCCC5)C3)C(=O)C43CCN(C(=O)C4CCN(C(=O)C5CCN(c6ccc(C7CCC(=O)NC7=O)nc6)CC5)CC4)CC3)nc(Nc3ccccc3F)c21 (stereo partly drawn) [Example 85, 3-[5-(4-{4-[(6-{4-[(2-fluorophenyl)amino]-3-(propan-2-yl)-3H-imidazo[4,5-c]pyridin-6-yl}-2-oxo-1-[(1S,3S)-3-(piperidin-1-yl)cyclobutyl]-1,2-dihydrospiro[indole-3,4′-piperidin]-1′-yl)carbonyl]piperidine-1-carbonyl}piperidin-1-yl)pyridin-2-yl]piperidine-2,6-dione] | < 100 | 70 to 85
5 | CC(C)n1cnc2cc(-c3ccc4c(c3)N([C@H]3C[C@@H](N5CCCCC5)C3)C(=O)C43CCN(C(=O)C4(C)CCN(C(=O)CN5CCC(c6ccc(C7CCC(=O)NC7=O)cn6)CC5)CC4)CC3)nc(NC3CC3)c21 (mixture of isomers) [Example 224, (3RS)-3-[6-(1-{2-[4-({6-[4-(cyclopropylamino)-3-(propan-2-yl)-3H-imidazo[4,5-c]pyridin-6-yl]-2-oxo-1-[(1S,3S)-3-(piperidin-1-yl)cyclobutyl]-1,2-dihydrospiro[indole-3,4′-piperidin]-1′-yl}carbonyl)-4-methylpiperidin-1-yl]-2-oxoethyl}piperidin-4-yl)pyridin-3-yl]piperidine-2,6-dione] | 100 to 500 | 70 to 85
6 | CC(C)n1cnc2cc(-c3ccc4c(c3)N([C@H]3C[C@@H](N5CCCCC5)C3)C(=O)C43CCN(C(=O)C4CCN(C(=O)[C@H]5CC[C@H](C(=O)N6CCCc7cc(C8CCC(=O)NC8=O)ccc76)CC5)CC4)CC3)nc(Nc3ccccc3F)c21 (mixture of isomers) [Example 51, (3RS)-3-{1-[(1R,4R)-4-{4-[(6-{4-[(2-fluorophenyl)amino]-3-(propan-2-yl)-3H-imidazo[4,5-c]pyridin-6-yl}-2-oxo-1-[(1S,3S)-3-(piperidin-1-yl)cyclobutyl]-1,2-dihydrospiro[indole-3,4′-piperidin]-1′-yl)carbonyl]piperidine-1-carbonyl}cyclohexanecarbonyl]-1,2,3,4-tetrahydroquinolin-6-yl}piperidine-2,6-dione] | < 100 | 70 to 85
7 | CC(C)n1cnc2cc(-c3ccc4c(c3)N([C@H]3C[C@@H](N5CCCCC5)C3)C(=O)C43CCN(C(=O)C4(C)CCN(C(=O)[C@H]5CC[C@H](Cn6cc7cc(C8CCC(=O)NC8=O)ccc7n6)CC5)CC4)CC3)nc(Nc3ccccc3F)c21 (mixture of isomers) [Example 190, (3RS)-3-(2-{[(1R,4R)-4-{4-[(6-{4-[(2-fluorophenyl)amino]-3-(propan-2-yl)-3H-imidazo[4,5-c]pyridin-6-yl}-2-oxo-1-[(1S,3S)-3-(piperidin-1-yl)cyclobutyl]-1,2-dihydrospiro[indole-3,4′-piperidin]-1′-yl)carbonyl]-4-methylpiperidine-1-carbonyl}cyclohexyl]methyl}-2H-indazol-5-yl)piperidine-2,6-dione] | < 100 | 50 to 70

Now from value to compound:

Row | DC50 [nM] | Dmax [%] | SMILES
8 | 100 to 500 | 50 to 70 | CC1C(C(=O)N2CCC3(CC2)C(=O)N([C@H]2C[C@@H](N4CCCCC4)C2)c2cc(-c4cc5ncn(C(C)C)c5c(NC5CC5)n4)ccc23)CCCN1C(=O)C1CCN(c2ccc(C3CCC(=O)NC3=O)cc2)CC1 (mixture of isomers) [Example 254, (3RS)-3-(4-{4-[3-({6-[4-(cyclopropylamino)-3-(propan-2-yl)-3H-imidazo[4,5-c]pyridin-6-yl]-2-oxo-1-[(1S,3S)-3-(piperidin-1-yl)cyclobutyl]-1,2-dihydrospiro[indole-3,4′-piperidin]-1′-yl}carbonyl)-2-methylpiperidine-1-carbonyl]piperidin-1-yl}phenyl)piperidine-2,6-dione]
9 | < 100 | 70 to 85 | CC(C)n1cnc2cc(-c3ccc4c(c3)N([C@H]3C[C@@H](N5CCCCC5)C3)C(=O)C43CCN(C(=O)CN4CCN(C(=O)C5CCN(c6ccc(C7CCC(=O)NC7=O)cn6)CC5)CC4)CC3)nc(NC3CC3)c21 (mixture of isomers) [Example 243, (3RS)-3-(6-{4-[4-(2-{6-[4-(cyclopropylamino)-3-(propan-2-yl)-3H-imidazo[4,5-c]pyridin-6-yl]-2-oxo-1-[(1S,3S)-3-(piperidin-1-yl)cyclobutyl]-1,2-dihydrospiro[indole-3,4′-piperidin]-1′-yl}-2-oxoethyl)piperazine-1-carbonyl]piperidin-1-yl}pyridin-3-yl)piperidine-2,6-dione]
10 | 100 to 500 | 50 to 70 | CC(C)n1cnc2cc(-c3ccc4c(c3)N([C@H]3C[C@@H](N5CCCCC5)C3)C(=O)C43CCN(C(=O)C4CC5CCC4N(C(=O)C4CCN(c6ccc(C7CCC(=O)NC7=O)cn6)CC4)C5)CC3)nc(NC3CC3)c21 (mixture of isomers) [Example 283, (3RS)-3-(6-{4-[6-({6-[4-(cyclopropylamino)-3-(propan-2-yl)-3H-imidazo[4,5-c]pyridin-6-yl]-2-oxo-1-[(1S,3S)-3-(piperidin-1-yl)cyclobutyl]-1,2-dihydrospiro[indole-3,4′-piperidin]-1′-yl}carbonyl)-2-azabicyclo[2.2.2]Octane-2-carbonyl]piperidin-1-yl}pyridin-3-yl)piperidine-2,6-dione]
11 | < 100 | 50 to 70 | CC(C)n1cnc2cc(-c3ccc4c(c3)N([C@H]3C[C@@H](N5CCCCC5)C3)C(=O)C43CCN(C(=O)C4CN(C(=O)C5CCN(c6ccc(C7CCC(=O)NC7=O)cn6)CC5)CC5(CCC5)C4)CC3)nc(NC3CC3)c21 (mixture of isomers) [Example 267, (3RS)-3-(6-{4-[8-({6-[4-(cyclopropylamino)-3-(propan-2-yl)-3H-imidazo[4,5-c]pyridin-6-yl]-2-oxo-1-[(1S,3S)-3-(piperidin-1-yl)cyclobutyl]-1,2-dihydrospiro[indole-3,4′-piperidin]-1′-yl}carbonyl)-6-azaspiro[3.5]nonane-6-carbonyl]piperidin-1-yl}pyridin-3-yl)piperidine-2,6-dione]
12 | < 100 | 70 to 85 | CC(C)n1cnc2cc(-c3ccc4c(c3)N([C@H]3C[C@@H](N5CCCCC5)C3)C(=O)C43CCN(C(=O)C4(C#N)CCN(C(=O)C5CCN(c6ccc(C7CCC(=O)NC7=O)cc6)CC5)CC4)CC3)nc(NC3CC3)c21 (mixture of isomers) [Example 258, 4-({6-[4-(cyclopropylamino)-3-(propan-2-yl)-3H-imidazo[4,5-c]pyridin-6-yl]-2-oxo-1-[(1S,3S)-3-(piperidin-1-yl)cyclobutyl]-1,2-dihydrospiro[indole-3,4′-piperidin]-1′-yl}carbonyl)-1-(1-{4-[(3RS)-2,6-dioxopiperidin-3-yl]phenyl}piperidine-4-carbonyl)piperidine-4-carbonitrile]
13 | 500 to 1000 | 50 to 70 | CC(C)n1cnc2cc(-c3ccc4c(c3)N([C@H]3C[C@@H](N5CCCCC5)C3)C(=O)C43CCN(C(=O)C4(C)CCN(CC5CCN(c6ccc(C7CCC(=O)NC7=O)cn6)CC5)CC4)CC3)nc(NC3CC3)c21 (mixture of isomers) [Example 225, (3RS)-3-[6-(4-{[4-({6-[4-(cyclopropylamino)-3-(propan-2-yl)-3H-imidazo[4,5-c]pyridin-6-yl]-2-oxo-1-[(1S,3S)-3-(piperidin-1-yl)cyclobutyl]-1,2-dihydrospiro[indole-3,4′-piperidin]-1′-yl}carbonyl)-4-methylpiperidin-1-yl]methyl}piperidin-1-yl)pyridin-3-yl]piperidine-2,6-dione]
